Assay [1] has as its target T1, Trx-1/TrxR (Homo sapiens, UniProt P10599+Q16881).
T1 construct: Thioredoxin reductase was purified from human placenta as previously described; made in house
T1 sequence (P10599 1-105): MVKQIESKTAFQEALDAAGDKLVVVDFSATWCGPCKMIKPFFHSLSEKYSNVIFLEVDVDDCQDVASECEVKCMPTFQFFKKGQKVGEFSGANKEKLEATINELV
T1 sequence (Q16881 1-499 isoform Q16881-5): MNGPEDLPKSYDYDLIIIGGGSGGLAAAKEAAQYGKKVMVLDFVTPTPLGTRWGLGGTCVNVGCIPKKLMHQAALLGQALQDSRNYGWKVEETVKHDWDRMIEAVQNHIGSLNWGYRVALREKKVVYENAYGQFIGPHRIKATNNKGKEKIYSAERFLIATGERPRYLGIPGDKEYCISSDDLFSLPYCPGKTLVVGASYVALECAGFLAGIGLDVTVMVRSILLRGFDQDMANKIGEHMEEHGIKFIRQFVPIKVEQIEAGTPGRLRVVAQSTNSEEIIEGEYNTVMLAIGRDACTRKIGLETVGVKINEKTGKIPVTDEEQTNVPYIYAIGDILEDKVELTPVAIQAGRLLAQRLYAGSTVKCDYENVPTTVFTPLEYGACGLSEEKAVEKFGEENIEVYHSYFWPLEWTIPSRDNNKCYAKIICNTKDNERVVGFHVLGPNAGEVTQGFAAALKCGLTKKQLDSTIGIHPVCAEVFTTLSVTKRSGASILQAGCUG
Nature of the assay: Trx-1/TrxR-dependent insulin reducing assay. The class given is biochemical. The conditions noted are these: for IC50: calculated from 5 concentrations (0.1 to 50 μM). On the procedure:
(§1) Thioredoxin reductase was purified from human placenta as previously described (Oblong, J.E.; Gasdaska, P.Y.; Sherrill, K.; Powis,G. Biochemistry 1993, 32, 7271) and recombinant human Trx-1 was prepared as previously described (Gasdaska, P.Y.; Oblong, J.E.; Cotgreave, I.A.; Powis,G. Biochem.Biophys.Acta 1994 ,1218 ,292). TrxR and Trx-1/TrxR activities were measured spectrophotometrically using previously published microtiter plate colorimetric assays, based on the increase in absorbance at 405 nm which occurs as dithionitrobenzoic acid (DTNB) is reduced by the enzyme-mediated transfer of reducing equivalents from NADPH (Gasdaska et al., Biochem.Biophys.Acta 1994 ,1218,292). Trx-1/TrxR-dependent insulin reducing activity was measured in an incubation with a final volume of 60 μL containing 100 mM HEPES buffer, pH 7.2,5 mM EDTA (HE buffer),1 mM NADPH, […],0.8 μM Trx-1 and 2.5 mg/mL bovine insulin. Incubations were for 30 min at 37 ° C. in flat-bottom 96-well microtiter plates. The reaction was stopped by the addition of 100 μL of 6 M guanidine-HC1, 50 mM Tris, pH 8.0, and 10 mM DTNB, and the absorbance measured to 405 nm. TrxR activity was measured in a final incubation volume of 60 μL containing HE buffer, 10 mM DTNB, 1.0 μM TrxR and 1 mM NADPH. Compounds were diluted in HE buffer and added to the wells as 20 μL aliquots, and TrxR was then added,also as 20 μL aliquots in HE buffer. To start the reaction NADPH and DTNB were added as a 20 μL aliquot in HE buffer and the plate was moved to the plate reader which had been preheated to 37 ° C. The optical density at 405 nm was measured every 10 s and initial reaction rates were measured.

For assay [2], the system named is mouse embryonic fibroblasts transformed with SV40 large T antigen. Nature of the assay: Proliferation of SV40 transformed mouse embryonic fibroblasts. The class given is cell-based. The conditions noted are these: Mus musculus, Fibroblast; data not shown; read-out: concentration required to inhibit growth by 50%. On the procedure: Two compounds, 24 referred to herein as SR-4 and 27 referred to herein as SR-7, were examined in greater detail as to their effects on biological activity. The proliferation of MCF-7, MDA-MB-231 and SV40 transformed mouse embryonic fibroblasts was measured by a previously described colorimetric assay (Wipf P, Jung J-K, Rodriguez S, Lazo JS Synthesis and biological evaluation of Deoxypreussomerin A and Palmarumycin CP 1 and related naphthoquinone spiroketals. Tetrahedron 57:283-296, 2001 and Vogt A, Rice RL, Settineri CE, Yokokawa F, Yokokawa S, Wipf P and Lazo JS (1998) Disruption of insulin-like growth factor-I signaling and down-regulation of Cdc2 by SC-ααδ9, a novel small molecule antisignaling agent identified in a targeted array library. J Pharmacol Exptl Therap 287:806-813.). Briefly, the inventors seeded 4,000-6,000 cells per well in microtiter plates. Cells were allowed to attach overnight and treated with vehicle or compounds for 72 h, after which the medium was replaced with serum free medium containing 0.1% 3-[4,5-dimethylthiazol-2-yl]-2,5-diphenyl tetrazolium bromide. Plates were incubated for 3 hours in the dark and total cell number was determined by spectrophotometrically at 540 nm as previously described (Vogt A, Rice RL, Settineri CE, Yokokawa F, Yokokawa S, Wipf P and Lazo JS (1998) Disruption of insulin-like growth factor-1 signaling and down-regulation of Cdc2 by SC-ααδ9, a novel small molecule antisignaling agent identified in a targeted array library. J Pharmacol Exptl Therap 287:806-813.). […] Cells were maintained in RPMI 1640 medium containing 10% fetal bovine serum and the paclitaxel-resistant cells also contained 17 nM paclitaxel and 10 μM verapamil. […] The number of cells was determined spectrophotometrically at 490 nm minus absorbance at 630 nm after exposure to 3-(4,5-dimethylthiazol-2-yl)-5-(3-carboxymethoxyphenyl)-2-(4-sulfophenyl)-2H-tetrazolium and N-methyldibenzopyurazine methyl sulfate. […]

Assay [3] has as its target T2, TrxR (Homo sapiens, UniProt Q16881).
T2 construct: Thioredoxin reductase was purified from human placenta as previously described; from tissue; host or cells: human placenta
T2 sequence (Q16881 1-499 isoform Q16881-5): T1 sequence (Q16881 1-499 isoform Q16881-5)
The assay is described as follows: Thioredoxin reductase (TrxR) DTNB reduction assay. It counts as biochemical. The note with it: calculated from 5 concentrations (0.1 to 50 μM). On the procedure:
as §1

As to `O=C1C=CC2(Oc3cccc4cccc(c34)O2)c2cccc(OC/C=C/c3ccccc3)c21` [SR-1, (E)-8-(3-phenyl-allyloxy)-1-oxo-1,4-dihydronaphthalene-4-spiro-2′-naphto[1″, 8″-de] [1′,3′] dioxin], the IC50 in assay [1] was more than 50 µM.
Regarding `C/C=C/COc1cccc2c1C(=O)C=CC21Oc2cccc3cccc(c23)O1` [SR-2, (E)-8-(but-2-enyloxy)-1-oxo-1,4-dihydronaphthalene-4-spiro-2′-naphto [1″,8″-de][1′,3′]dioxin], in assay [1], the IC50 is more than 50 µM.
On to `CCCCCCOc1cccc2c1C(=O)C=CC21Oc2cccc3cccc(c23)O1` [SR-3, 8-hexyloxy-1-oxo-1,4-dihydronaphthalene-4-spiro-2′-naphto [1″,8″-de] [1′,3′] dioxin], for which the IC50 in assay [1] was more than 50 µM.
With `COc1cccc(COc2cccc3c2C(=O)C=CC32Oc3cccc4cccc(c34)O2)c1` [SR-5, 8-(3-methoxy-benzyloxy)-1-oxo-1,4-dihydronaphthalene-4-spiro-2′-naphto [1″,8″-de][1′,3′] dioxin], the IC50 in assay [1] is more than 50 µM.
Take `O=C1C=CC2(Oc3cccc4cccc(c34)O2)c2cccc(OCCc3ccccc3)c21` [SR-6, 8-(2-phenyl-ethoxy)-1-oxo-1,4-dihydronaphthalene-4-spiro-2′-naphto [1″,8″-de][1′,3′] dioxin]: the IC50 in assay [1] was more than 50 µM.
As to `O=C1C=CC2(Oc3cccc4cccc(c34)O2)c2cccc(OCc3ccco3)c21` [SR-7, 8-(furan-2-ylmethoxy)-1-oxo-1,4-dihydronaphthalene-4-spiro-2′-naphto [1″,8″-de][1′,3′] dioxin], the IC50 is 3000 nM in assay [2] and more than 50 µM in assay [1].
As for `CC(C)=CCC/C(C)=C/COc1cccc2c1C(=O)C=CC21Oc2cccc3cccc(c23)O1` [SR-9, (E,E)-8-(3,7-diemthyl-octa-2,6-dienyloxy)-1-oxo-1,4-dihydronaphthalene-4-spiro-2′-naphtol [1″,8″-de][1′,3′] dioxin], in assay [1], the IC50 is more than 50 µM.
For `O=C1C=CC2(Oc3cccc4cccc(c34)O2)c2cccc(OCc3ccoc3)c21` [SR-10, 8-(furan-3-ylmethoxy)-1-oxo-1,4-dihydronaphthalene-4-spiro-2′-naphto [1′,8′-de][1′,3′] dioxin], the figures for the IC50 in assay [1] and in assay [3] were 23.2 µM and more than 50 µM, respectively.
In the case of `O=C1C=CC2(Oc3cccc4cccc(c34)O2)c2cccc(OCc3ccccn3)c21` [SR-11, 8-(pyridin-2-ylmethoxy)-1-oxo-1,4-dihydronaphthalene-4-spiro-2′-naphto [1″,8″-de][1′,3′] dioxin], the IC50 in assay [1] was 41.8 µM; in assay [3], more than 50 µM.
As to `O=C1C=CC2(Oc3cccc4cccc(c34)O2)c2cccc(OCc3cccnc3)c21` [SR-12, 8-(pyridin-3-ylmethoxy)-1-oxo-1,4-dihydronaphthalene-4-spiro-2′-naphto [1″,8″-de][1′,3′] dioxin], the IC50 in assay [1] and in assay [3] was more than 50 µM each time.
Take `O=C1C=CC2(Oc3cccc4cccc(c34)O2)c2cccc(OCc3ccncc3)c21` [SR-13, 8-(pyridin-4-ylmethoxy)-1-oxo-1,4-dihydronaphthalene-4-spiro-2′-naphtol [1″,8″-de][1′,3′] dioxin]: the IC50 in assay [1] and in assay [3] was more than 50 µM throughout.
As for `C=CCOc1cccc2c1C(=O)C=CC21Oc2cccc3cccc(c23)O1` [SR-14, 8-allyloxy-1-oxo-1,4-dihydronaphthalene-4-spiro-2′-naphto [1″,8″-de][1′,3′] dioxin], the results for the IC50 in assay [1] and in assay [3] were 23.2 µM and more than 50 µM, respectively.
Take `COc1ccc(COc2cccc3c2C(=O)C=CC32Oc3cccc4cccc(c34)O2)cc1` [TH-39, 8-(4-methoxy-benzyloxy)-1-oxo-1,4-dihydronaphthalene4-spiro-2-naphto [1,8-de][1, 3]dioxin]: the IC50 in assay [1] and in assay [3] was more than 50 µM each time.
As to `O=C1C=CC2(OCCO2)c2cccc(O)c21` [TH-169], in assay [1], the “Trx-1/TrxR inhibition, in words” value was “maintains significant activity”; the “fold less active than palmarumycin CP1 on Trx-1/TrxR” value is “approximately 10 fold”; the “selectivity for Trx-1 over TrxR” value is reported as “approximately 2 fold”; the IC50 is 3.4 µM. Besides, the IC50 in assay [3] is 8.8 µM.
Turning to `COc1cccc2c1C(=O)C=CC21OCCCO1` [TH-223], in assay [1], the “Trx-1/TrxR inhibition, in words” value is “practically inactive” and the IC50 was 40.2 µM. The IC50 in assay [3] was more than 50 µM.
As to `O=C1C=CC2(Oc3cccc4cccc(c34)O2)c2cccc(O)c21` [palmarumycin CP1, 8-hydroxy-1-oxo-1,4-dihydronaphthalene-4-spiro-2′-naphtho[1″,8″-de] [1′,3′] dioxin, reference compound], the IC50 in assay [2] is 3000 nM; in assay [1] it was 0.35 µM; in assay [3] it was 12 µM. Besides, the “selectivity for Trx-1 over TrxR” value in assay [1] is on record as more than 30 fold.

The record behind these values is patent US6673937B2, “Syntheses and methods of use of new antimitotic agents” (The University of Pittsburgh, priority 2000, dated 2004).
